Where two headings read alike, the source gives them in different places.
Tests used:
PDE2A = molecular target: T1, PDE2A (Rattus norvegicus, UniProt Q01062); experiment: PDE2 occupancy by ex-vivo autoradiography with [3H]B-17a; format: in vivo; conditions: rat
T1 construct: from tissue; host or cells: rat brain striatal sections (ex vivo)
T1 sequence (Q01062 1-928): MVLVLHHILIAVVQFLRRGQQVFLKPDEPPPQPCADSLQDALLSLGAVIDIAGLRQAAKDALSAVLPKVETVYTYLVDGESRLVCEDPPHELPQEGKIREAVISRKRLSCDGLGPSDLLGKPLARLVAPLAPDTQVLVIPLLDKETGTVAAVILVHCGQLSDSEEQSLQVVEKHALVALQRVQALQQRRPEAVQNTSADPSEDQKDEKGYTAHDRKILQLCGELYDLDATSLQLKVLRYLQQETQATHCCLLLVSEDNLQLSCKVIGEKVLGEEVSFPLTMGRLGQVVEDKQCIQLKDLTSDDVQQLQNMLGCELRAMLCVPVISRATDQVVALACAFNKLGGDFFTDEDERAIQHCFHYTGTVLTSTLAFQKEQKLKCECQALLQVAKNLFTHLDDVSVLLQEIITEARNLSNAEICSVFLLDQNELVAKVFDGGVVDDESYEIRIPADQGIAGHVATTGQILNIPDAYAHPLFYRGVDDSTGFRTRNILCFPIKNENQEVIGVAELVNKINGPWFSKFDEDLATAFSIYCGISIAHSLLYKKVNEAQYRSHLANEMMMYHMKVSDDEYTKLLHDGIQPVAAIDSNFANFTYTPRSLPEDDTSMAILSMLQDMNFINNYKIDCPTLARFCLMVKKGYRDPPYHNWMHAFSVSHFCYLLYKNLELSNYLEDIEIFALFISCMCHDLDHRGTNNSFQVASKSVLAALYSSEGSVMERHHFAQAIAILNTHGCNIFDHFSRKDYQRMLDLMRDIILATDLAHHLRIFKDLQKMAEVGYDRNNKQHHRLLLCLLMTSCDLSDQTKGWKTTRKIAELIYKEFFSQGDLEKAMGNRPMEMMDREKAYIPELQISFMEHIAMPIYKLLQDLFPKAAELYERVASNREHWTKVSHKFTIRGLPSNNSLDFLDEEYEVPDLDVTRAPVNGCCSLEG
Experimental: PDE2 Occupancy by Test Compounds Methods
Brains were immediately removed from the skull and rapidly frozen in dry-ice cooled 2-methylbutane (−40° C.).
After thawing, sections were dried under a cold stream of air and incubated for one minute with 30 nM [^3H]B-17a in Tris-HCl (50 mM, pH7.4) containing 0.3% BSA. Brain sections from drug-treated and vehicle-treated animals were incubated in parallel. […] After incubation, the excess of [^3H]B-17a was washed off in ice-cold buffer 2 times 10 minutes, followed by a quick dip in distilled water. The sections were then dried under a stream of cold air.
Brain sections were loaded in a β-imager (Biospace, Paris) for 4 h and radioactivity emerging from delineated brain area was quantified using the Beta vision program (Biospace, Paris). Specific binding was determined as the difference between total binding in the striatum and non-specific binding in the cerebellum. Percentage receptor occupancy of the drug administered to the animal corresponded to 100% minus the percentage receptor labeled in the treated animal. For the determination of ED50-values, the percentage of receptor occupancy was plotted against dose and the sigmoidal log dose-effect curve of best fit was calculated by non-linear regression analysis, using the GraphPad Prism program.

hPDE3B = experiment: In vitro assay PDE3 (SPA, 3H-cAMP); format: biochemical, human; set-up: hPDE3B Emax: unit not given here; conditions: for hPDE3B pIC50: 0.4 μM cAMP substrate
hPDE2A = molecular target: T2, hPDE2A (Homo sapiens, UniProt O00408); experiment: In vitro assay PDE2A (SPA, 3H-cGMP); format: biochemical; conditions: for Emax: read-out: hPDE2A Emax
T2 construct: made in house; host or cells: Sf9 insect cells (baculovirus)
Experimental: Human recombinant PDE2A (hPDE2A) was expressed in Sf9 cells using a recombinant rPDE10A baculovirus construct. Cells were harvested after 48 h of infection and the hPDE2A protein was purified by metal chelate chromatography on Ni-sepharose 6FF. Tested compounds were dissolved and diluted in 100% DMSO to a concentration 100 fold of the final concentration in the assay. Compound dilutions (0.4 μl) were added in 384 well plates to 20 μl of incubation buffer (50 mM Tris pH 7.8, 8.3 mM MgCl2, 1.7 mM EGTA). 10 μl of hPDE2A enzyme in incubation buffer was added and the reaction was started by addition of 10 μl substrate to a final concentration of 10 μM cGMP and 0.01 μCi ^3H-cGMP. The reaction was incubated for 45 minutes at room temperature. […] After sedimentation of the beads during 30 minutes the radioactivity was measured in a Perkin Elmer Topcount scintillation counter and results were expressed as cpm. For blanc values the enzyme was omitted from the reaction and replaced by incubation buffer. Control values were obtained by addition of a final concentration of 1% DMSO instead of compound.

hPDE10A2 = hPDE10A2 (Homo sapiens, UniProt Q9Y233); experiment: biochemical; conditions: for IC50: 60 nM cAMP substrate, read-out: hPDE10A2 pIC50 (converted); for Emax: read-out: hPDE10A2 Emax
Experimental: Rat recombinant PDE10A (rPDE10A2) was expressed in Sf9 cells using a recombinant rPDE10A baculovirus construct. Cells were harvested after 48 h of infection and the rPDE10A protein was purified by metal chelate chromatography on Ni-sepharose 6FF. Tested compounds were dissolved and diluted in 100% DMSO to a concentration 100 fold of the final concentration in the assay. Human recombinant PDE10A […] was expressed in Sf9 cells using a recombinant hPDE10A baculovirus that was made and amplified in house. Cells were harvested after 72 h of infection and the hPDE10A protein was purified by metal chelate chromatography on Ni-sepharose. Compound dilutions (0.4 μl) were added in 384 well plates to 20 μl of incubation buffer (50 mM Tris pH 7.8, 8.3 mM MgCl2, 1.7 mM EGTA). […] of rPDE10A or hPDE10A enzyme in incubation buffer was added and the reaction was started by addition of 10 μl substrate to a final concentration of 60 nM cAMP and 0.008 μCi ^3H-cAMP. The reaction was incubated for 60 minutes at room temperature. […] After sedimentation of the beads during 30 minutes the radioactivity was measured in a Perkin Elmer Topcount scintillation counter and results were expressed as cpm. For blanc values the enzyme was omitted from the reaction and replaced by incubation buffer. Control values were obtained by addition of a final concentration of 1% DMSO instead of compound.

[1] = po, read-out: PDE2 occupancy at 10 mg/kg, route PO (oral), 10 mg/kg, male Wistar rats, striatum, percentage occupancy

T2 sequence (O00408 whole entry): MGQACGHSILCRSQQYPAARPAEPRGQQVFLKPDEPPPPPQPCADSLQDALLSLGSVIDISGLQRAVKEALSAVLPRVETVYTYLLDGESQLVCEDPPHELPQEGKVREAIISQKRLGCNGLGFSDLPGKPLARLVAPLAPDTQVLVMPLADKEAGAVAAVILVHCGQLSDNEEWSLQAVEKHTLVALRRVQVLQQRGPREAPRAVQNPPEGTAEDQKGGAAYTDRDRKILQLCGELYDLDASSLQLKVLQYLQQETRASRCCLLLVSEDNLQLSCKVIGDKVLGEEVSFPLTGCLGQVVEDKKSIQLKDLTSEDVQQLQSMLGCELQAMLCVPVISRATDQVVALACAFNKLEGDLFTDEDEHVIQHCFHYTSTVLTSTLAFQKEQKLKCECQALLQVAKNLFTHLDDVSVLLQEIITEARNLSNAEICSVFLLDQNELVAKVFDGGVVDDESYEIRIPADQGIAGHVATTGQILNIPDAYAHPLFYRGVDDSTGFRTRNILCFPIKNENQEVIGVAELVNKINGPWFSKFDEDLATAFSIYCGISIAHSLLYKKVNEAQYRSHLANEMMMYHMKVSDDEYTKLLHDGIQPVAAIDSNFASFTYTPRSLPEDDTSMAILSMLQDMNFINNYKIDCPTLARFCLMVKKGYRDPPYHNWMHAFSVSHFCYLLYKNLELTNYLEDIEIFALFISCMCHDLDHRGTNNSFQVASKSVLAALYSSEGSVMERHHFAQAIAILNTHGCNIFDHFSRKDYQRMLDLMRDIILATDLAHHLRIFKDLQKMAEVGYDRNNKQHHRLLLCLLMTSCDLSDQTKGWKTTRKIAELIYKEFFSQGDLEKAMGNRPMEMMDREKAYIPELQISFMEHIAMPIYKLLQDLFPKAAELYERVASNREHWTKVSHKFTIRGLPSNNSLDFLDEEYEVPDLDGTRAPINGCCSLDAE
Sequence of hPDE10A2 (Q9Y233 267-1055): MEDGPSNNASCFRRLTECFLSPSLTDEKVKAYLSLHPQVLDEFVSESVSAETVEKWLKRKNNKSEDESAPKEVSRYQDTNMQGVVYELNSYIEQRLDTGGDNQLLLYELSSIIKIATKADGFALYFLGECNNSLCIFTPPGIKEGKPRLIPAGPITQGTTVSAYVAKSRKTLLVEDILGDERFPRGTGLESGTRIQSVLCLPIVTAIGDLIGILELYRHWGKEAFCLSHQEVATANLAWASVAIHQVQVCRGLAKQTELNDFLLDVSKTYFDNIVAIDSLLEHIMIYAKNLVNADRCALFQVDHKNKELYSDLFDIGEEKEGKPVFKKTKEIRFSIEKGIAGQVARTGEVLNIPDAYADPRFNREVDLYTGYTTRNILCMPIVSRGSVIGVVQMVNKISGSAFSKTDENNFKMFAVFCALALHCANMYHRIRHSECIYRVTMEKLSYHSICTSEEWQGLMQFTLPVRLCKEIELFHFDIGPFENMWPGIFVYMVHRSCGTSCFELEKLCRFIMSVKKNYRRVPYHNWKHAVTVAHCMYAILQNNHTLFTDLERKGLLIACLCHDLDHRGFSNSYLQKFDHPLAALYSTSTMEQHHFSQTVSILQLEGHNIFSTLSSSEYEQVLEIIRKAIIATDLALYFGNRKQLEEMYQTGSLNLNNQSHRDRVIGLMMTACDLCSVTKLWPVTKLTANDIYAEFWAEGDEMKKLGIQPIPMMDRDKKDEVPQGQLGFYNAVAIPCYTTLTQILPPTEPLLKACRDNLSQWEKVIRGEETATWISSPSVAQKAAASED

| SMILES | receptor occupancy at 10 mg/kg (PDE2A; route PO (oral), 10 mg/kg, male Wistar rats, striatum, percentage occupancy, read-out: PDE2 occupancy at 10 mg/kg) | hPDE3B Emax (hPDE3B) | hPDE3B pIC50 (hPDE3B) | IC50 (hPDE2A) | Emax (hPDE2A) | IC50 (hPDE10A2) | Emax (hPDE10A2) | melting point | receptor occupancy at 10 mg/kg (PDE2A; [1]) | ED50 (PDE2A; po, read-out: PDE occupancy ED50, route PO (oral), male Wistar rats, dose producing 50% occupancy) | IC50 (hPDE2A; 10 μM cGMP substrate, read-out: hPDE2A pIC50 (converted)) |
| --- | --- | --- | --- | --- | --- | --- | --- | --- | --- | --- | --- |
| Cc1cc(C(F)(F)F)cc(N2CC[C@@H](C)[C@H](c3cc(C(F)F)nc4ncnn34)C2)n1 [Compound 21] | 9% | 93 | 5.83 | 0.0617 µM | 101% | 0.269 µM | 95% | 124.81 °C |  |  |  |
| C[C@@H]1CCN(c2nccc3cccc(F)c23)C[C@H]1c1cc(C(F)F)nc2ncnn12 [Compound 20] |  | 81 | 5.41 | 0.0372 µM | 100% | 0.269 µM | 97% | 179.73 °C | 18% |  |  |
| C[C@@H]1CCN(c2nccc3ccc(Cl)cc23)C[C@H]1c1cc(C(F)F)nc2ncnn12 [Compound 4] |  | 82 | 5.39 |  | 100% | 0.347 µM | 101% | 135.42 °C | 93% | 8.1 mg/kg | 0.00339 µM |

Reference: patent US11053248B2, “[1,2,4]triazolo[1,5-a]pyrimidine compounds as PDE2 inhibitors” (Janssen Pharmaceutica NV, priority 2016, dated 2021)
